“Also recorded” adds a separate entry of the source. Where no end group is shown, it is not given here.
Experiments:
[1] = prior study [43]; cited from earlier work
[2] = tested on: human cells; details: cited from earlier work
[3] = tested on: MDA-MB-231 cells; experiment: In vitro mRNA transfection with HK polyplexes (luciferase mRNA, luciferase activity); assay type: cell-based; details: for mRNA transfection relative to H3K(+H)4b (in words): 4:1 ratio (HK:mRNA); for effectiveness as carrier of mRNA (in words): luciferase mRNA, HK polyplex; for RLU/μg-Protein (luciferase activity): mRNA 1 μg, 24 h
Description: FIG. 1. Comparison of H3K(+H)4b and H3K4b peptides as carriers of mRNA. To form the HK polyplexes, the mRNA (1 μg) was mixed with 3 different ratios of the HK ([…]) polymer for 30 minutes. The HK polyplexes were then added to the cells for 24 h before the luciferase activity was measured. ****, H3K(+H)4b vs H3K4b, P<0.0001.
In vitro mRNA Transfection. Several HK polymers were examined for their ability to carry a luciferase-expressing mRNA (CleanCap Firefly Luciferase mRNA, Trilink Biotechnologies, Inc, San Diego, CA) into MDA-MB-231 cells (America Type Tissue Culture, Manassas, VA). In brief, 3×10^4 cells were plated into a 24-well plate containing 500 μl of DMEM and 10% fetal bovine serum (ThermoFisher Scientific, Waltham, MA). After 24 h, when the cells were 60 to 80% confluent, the media in each well was changed to Opti-MEM (ThermoFisher Scientific). To prepare HK polyplexes, mRNA (1 μg) in 50 μl of Opti-MEM was briefly mixed well with one of the HK polymers (4 to 12 μg) and maintained at room temperature for 30 min. This polyplex was then added dropwise to the cells. After four h, the Opti-MEM media was removed and replaced with 0.5 ml of DMEM/10% serum (0.5 ml). Twenty-four hours later, the cells were lysed, and the luciferase activity (Promega Corporation, Madison, WI) was measured.
To obtain the data in Table 4, luciferase-expressing mRNA (1 μg) in 50 μl of Opti-MEM was briefly mixed with one of the HK polymers (4, 8, or 12 μg) and maintained at room temperature for 30 min. The resulting polyplexes were added dropwise to the MDA-NM-231 cells and after four h, the Opti-MEM media was removed and replaced with DMEM/10% serum. Twenty-four hours later, the cells were lysed, and the luciferase activity was measured

[4] = tested on: mRNA; experiment: Heparin displacement assays (gel electrophoresis and Sybr Gold dye intercalation); assay type: physicochemical; details: HK:mRNA 4:1 wt/wt
Description: FIG. 4. Heparin Displacement Assays. After HK polyplexes were formed (wt:wt; HK:mRNA; 4 μg:1 μg), different concentrations of heparin […] were incubated with these for 30 min. A. Gel Retardation. The HK polyplexes were loaded on the agarose gel (1%), and electrophoresis was carried out and stained with Sybr Gold. B. Fluorescent dye intercalation. After the HK polyplexes were formed and incubated with several concentrations of heparin, the Sybr Gold nucleic acid dye was incubated with the HK polyplexes for 5 mins. Fluorescence was then measured by a microplate fluorimeter (λex=497 nm, λem=520 nm) (SynergyMx, BioTek). *, P<0.05; ***, P<0.001; H3K4b or H2K vs. H3K(+H)4b.
Heparin Displacement Assays. Heparin displacement assays of HK polyplexes were done with the dye intercalation assay and with gel electrophoresis. A fluorescent assay assessed polyplexes of HK polymer and mRNA (4:1 wt/wt ratio; polymer:mRNA) formed in RNAse/DNAase free water (Corning, Manassas, VA). HK polyplexes were prepared as described previously, followed by the addition of diluted Syber Gold. For detection, working dilutions of the polyplexes (1/5 of volume), water (3/5) and Sybr Gold dye (1/5, 0.2×) were incubated for 5 minutes, and fluorescence was measured by a fluorimeter (Ex=497 nm, Em=520 nm) (SynergyMx, BioTek, Winooski, VT). The control sample was prepared with the same amount of mRNA, water, and Sybr Gold dye. For the heparin displacement, instead of water, heparin salt (Sigma-Aldrich, St. Louis, MO) solutions at different concentrations (0.5, 1, 1.5, 2, 3 μg/μl) were used, and the HK polyplexes were incubated at 37° C. for 30 min before addition of Sybr Gold.
Displacement of mRNA from HK polyplexes with heparin was also done with gel electrophoresis. After HK polyplexes were formed, different concentrations of heparin (0.5, 1.0, 1.5, 2.0, 3.0 μg/μl; volume 20 μl) were incubated with these at 37° C. for 30 min. The polyplexes were then loaded on the agarose gel (1%; 10× BlueJuice Gel loading buffer), and electrophoresis was carried out and stained with SG as described above. […]

[5] = prior studies [27]; cited from earlier work
[6] = prior studies [34, 35, 45]; cited from earlier work
[7] = ratio mRNA:polymer 1:12 (wt:wt)

Row | Substance | antimicrobial activity (in words) [1] | cytotoxicity to human cells (in words) [2] | mRNA transfection relative to H3K(+H)4b (in words) [3] | effectiveness as carrier of mRNA (in words) [3] | RLU/μg-Protein (luciferase activity) ([3]; ratio mRNA:polymer 1:4 (wt:wt)) [RLU/μg-Protein] | RLU/μg-Protein (luciferase activity) ([3]; ratio mRNA:polymer 1:8 (wt:wt)) [RLU/μg-Protein] | RLU/μg-Protein (luciferase activity) [3, 7] [RLU/μg-Protein] | fold less effective in transfecting mRNA compared to H3K(+H)4b ([3]; 4:1 ratio (HK:mRNA; wt:wt)) | binding/release of mRNA and polyplex stability on exposure to heparin (in words) [4] | carrier of DNA plasmids (in words) [5] | carrier of siRNA (in words) [6]
1 | H3k4b (KHHHKHHHKHHHKHHHK; also: one of four branches on a branched lysine core) | greater antimicrobial activity | no observed cytotoxicity to human cells |  |  |  |  |  |  |  |  | 
2 | H-H3K(+H)4b: four-branched HK polymer, each branch R = HKHHHKHHHKHHHHKHHHK- (SEQ ID NO: 9) (also: one of four branches on a branched lysine core) |  |  | did not improve mRNA transfection more than H3K(+H)4b | effective carriers of mRNA; also recorded: markedly more effective as a carrier of mRNA | 1107.5 ± 140.4 | 874.6 ± 65.2 | 676.4 ± 25.7 |  |  |  | 
3 | H3K(1+H)4b: four-branched HK polymer, each branch R = KHHHKHHHKHHHKHHHHK- (SEQ ID NO: 12) (also: one of four branches on a branched lysine core) |  |  |  | poor carriers of mRNA | 24.3 ± 4.5 | 15.0 ± 3.6 | 7.3 ± 2.5 |  |  |  | 
4 | H4K4b: four-branched HK polymer, each branch R = KHHHHKHHHHKHHHHKHHHHK- (SEQ ID NO: 11) (also: one of four branches on a branched lysine core) |  |  | did not enhance mRNA transfection | effective carriers of mRNA | 896.4 ± 112.6 | 821.8 ± 115.6 | 522.4 ± 69.2 |  |  |  | 
5 | H3K(3+H)4b: four-branched HK polymer, each branch R = KHHHKHHHHKHHHKHHHK- (SEQ ID NO: 13) (also: one of four branches on a branched lysine core) |  |  |  | poor carriers of mRNA | 61.7 ± 5.7 | 68.7 ± 3.1 | 59.0 ± 7.5 |  |  |  | 
6 | H3K(1,3+H)4b: four-branched HK polymer, each branch R = KHHHKHHHHKHHHKHHHHK- (SEQ ID NO: 14) (also: one of four branches on a branched lysine core) |  |  |  |  | 518.3 ± 134.7 | 427.7 ± 18.1 | 378 ± 5.2 | about 2.5 fold |  |  | 
7 | H2K4b: four-branched HK polymer on three-lysine core, each branch R = KHKHHKHHKHHKHHKHHKHK- (SEQ ID NO: 5) (also: one of four branches on a three-lysine core) |  |  |  |  | 546.7 ± 70.1 | 132.3 ± 58.5 | 194.7 ± 18.4 |  | too stable | good carrier of large molecular weight DNA plasmids | poor carrier of relatively low molecular weight siRNA
